Measured values from the NIST ThermoML archive (doi:10.1021/je200673a).

Assay: molar heat capacity at constant pressure
Settings: 101.33 kPa, Vacuum adiabatic calorimetry

C(#Cc1ccccc1)c1ccccc1 [1,2-diphenylethyne]
molar heat capacity at constant pressure [J/K/mol]
Settings | Crystal | Liquid
223.62 K | 167.21 | –
224.96 K | 168.09 | –
226.3 K | 169.06 | –
227.64 K | 170.12 | –
228.97 K | 171 | –
230 K | 171.85 | –
230.31 K | 171.96 | –
231.65 K | 173.01 | –
232.99 K | 173.91 | –
234.32 K | 174.98 | –
235.65 K | 175.95 | –
236.99 K | 176.85 | –
238.33 K | 177.98 | –
239.66 K | 179.01 | –
240 K | 179.11 | –
240.99 K | 179.99 | –
242.32 K | 180.88 | –
243.73 K | 181.99 | –
245.07 K | 182.85 | –
246.4 K | 183.79 | –
247.73 K | 184.64 | –
249.06 K | 185.75 | –
250 K | 186.45 | –
250.39 K | 185.54 | –
251.71 K | 187.74 | –
253.03 K | 188.91 | –
254.36 K | 189.53 | –
255.68 K | 190.6 | –
257 K | 191.87 | –
258.32 K | 192.68 | –
259.65 K | 193.82 | –
260 K | 193.93 | –
260.97 K | 194.81 | –
262.28 K | 195.65 | –
263.6 K | 197.01 | –
264.98 K | 198.01 | –
266.3 K | 198.7 | –
267.61 K | 199.72 | –
268.93 K | 200.72 | –
270 K | 201.56 | –
270.24 K | 201.85 | –
271.55 K | 202.64 | –
272.86 K | 203.72 | –
274.17 K | 204.75 | –
275.47 K | 205.78 | –
276.77 K | 206.87 | –
278.07 K | 207.63 | –
279.37 K | 208.98 | –
280 K | 209.29 | –
280.67 K | 209.89 | –
281.97 K | 210.65 | –
283.26 K | 211.51 | –
284.56 K | 212.46 | –
285.9 K | 213.85 | –
287.2 K | 214.7 | –
288.49 K | 216.02 | –
289.78 K | 216.96 | –
290 K | 216.99 | –
291.06 K | 217.78 | –
292.34 K | 219.03 | –
293.62 K | 219.44 | –
294.9 K | 220.27 | –
296.17 K | 221.66 | –
297.45 K | 223.35 | –
298.15 K | 223.14 | –
298.72 K | 223.61 | –
299.98 K | 224.36 | –
300 K | 224.51 | –
301.47 K | 225.51 | –
303.12 K | 227.1 | –
304.78 K | 228.38 | –
306.45 K | 228.99 | –
308.12 K | 230.51 | –
309.79 K | 231.08 | –
310 K | 231.76 | –
311.46 K | 232.91 | –
313.14 K | 234.02 | –
314.83 K | 234.92 | –
316.52 K | 236.14 | –
318.22 K | 238.29 | –
319.93 K | 238.52 | –
320 K | 238.87 | –
321.63 K | 240.17 | –
323.34 K | 241.21 | –
325.06 K | 242.48 | –
330 K | 245.96 | –
332.03 K | 247.4 | 302
340 K | – | 303.79
348.64 K | – | 304.58
348.68 K | – | 305.37
350 K | – | 306.04
350.47 K | – | 306.11
350.59 K | – | 307.42
352.28 K | – | 307.07
352.61 K | – | 306.03
354.1 K | – | 304.34
354.59 K | – | 307.75
355.9 K | – | 307.73
356.6 K | – | 308.43
357.73 K | – | 308.85
358.63 K | – | 305.76
359.56 K | – | 309.14
360 K | – | 308.41
360.65 K | – | 308.73
361.57 K | – | 306.43
362.7 K | – | 310.22
363.41 K | – | 309.69
364.77 K | – | 310.47
365.26 K | – | 310.84
367.13 K | – | 305.78
367.19 K | – | 311.76
369.03 K | – | 310.48
369.32 K | – | 308.58
370 K | – | 309.93
370.91 K | – | 308.47
371.44 K | – | 311.8
